Reference: patent US9527834B2, “Substituted 1-benzylquinoxalin-2(1H)-one analogs as positive allosteric modulators of muscarinic acetylcholine receptor M1” (Vanderbilt University, priority 2013, dated 2016)
pEC50: −log10 of the molar value.

Molecular target: T1, mAChR M1 (Homo sapiens, UniProt P11229)
T1 construct: expressed in transfected cells; host or cells: CHO-K1
T1 sequence (P11229 1-460): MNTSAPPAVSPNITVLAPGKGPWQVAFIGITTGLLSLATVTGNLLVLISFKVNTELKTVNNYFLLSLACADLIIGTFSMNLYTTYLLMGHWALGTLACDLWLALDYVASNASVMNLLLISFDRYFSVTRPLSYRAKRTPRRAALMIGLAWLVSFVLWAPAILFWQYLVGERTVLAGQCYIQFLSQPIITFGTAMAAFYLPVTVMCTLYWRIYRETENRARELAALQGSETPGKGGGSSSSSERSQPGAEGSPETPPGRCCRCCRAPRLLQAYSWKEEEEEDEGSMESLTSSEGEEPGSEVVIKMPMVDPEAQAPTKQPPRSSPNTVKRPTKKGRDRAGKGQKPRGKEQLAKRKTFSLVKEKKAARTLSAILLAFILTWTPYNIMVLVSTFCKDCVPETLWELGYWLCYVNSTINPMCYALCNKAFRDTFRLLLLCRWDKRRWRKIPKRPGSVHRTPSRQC
Experiment: mAChR M1 cell-based functional assay (calcium mobilization, potentiation of EC20 acetylcholine response)
Details: mAChR M1-expressing CHO-K1 cells; calcium flux; >10 μM estimated for low potency (no plateau) with >20% increase in ACh response
From the text: Chinese hamster ovary (CHO-K1) cells stably expressing rat (r)M1 were purchased from the American Type Culture Collection and cultured according to their indicated protocol. CHO cells stably expressing human (h)M2, hM3, and hM5 were described previously (Levey, A. I., et al., J Neurosci. 1991, 11, 3218-3226.); hM1 and hM4 cDNAs were purchased from Missouri S&T cDNA Resource; rM4 cDNA was provided by T. I. Bonner (National Institutes of Health, Bethesda, Md.). rM2 and rM3 were cloned from a rat brain cDNA library and sequence verified. hM1, rM2, rM3, hM4, and rM4 cDNAs were used to stably transfect CHO-K1 cells purchased from the American Type Culture Collection using Lipofectamine2000. […]
Calcium flux was measured using the Functional Drug Screening System (FDSS) 6000 (Hamamatsu Corporation, Tokyo, Japan) as an increase in the fluorescent static ratio. […] Agonist activity was analyzed as a concentration-dependent increase in calcium mobilization upon compound addition. Positive allosteric modulator activity was analyzed as a concentration-dependent increase in the EC20 acetylcholine response. Antagonist activity was analyzed as a concentration-dependent decrease in the EC80 acetylcholine response. […]

| SMILES | pEC50 |
| --- | --- |
| Cn1cc2c(-c3cc(F)c(Cn4c(=O)cnc5ccccc54)c(F)c3)cccc2n1 [Compound B1, 1-(2,6-difluoro-4-(2-methyl-2H-indazol-4-yl)benzyl)quinoxalin-2(1H)-one] | 5.46 |
| Cn1cc(-c2ccc(Cn3c(=O)cnc4ccccc43)cc2)cn1 [Compound B2] | < 5.00 |
